≈ marks a conversion by molar mass, not a printed value.
Legend:
[1] = Water solubility by slurry equilibration and HPLC; type: physicochemical; settings: pH 7, aqueous buffer, thermodynamic from solid
Description: Water Solubility of the Co-Crystals
The determination of the amount of the actives in solution was performed on HPLC ACQUITY (Water) system, equipped with PDA—230 nm UV detector and Sample Manager auto-injector.
Waters' Enpower software was used to record the chromatograms and to calculate the chromatographic parameters. Gradient elution (Acetonitrile—0.1% H3PO4) was achieved using C18 column, 50×2.1 mm, 1.7 μm BEH. Injection volume was set 1 μL by auto injector. The analysis were performed with rate flux of 0.4 ml/min. UV detection was performed at 245 nm. Peak identities were confirmed by spectrum and retention time comparison. All the analyses were performed at room temperature. All the analyzed solutions were prepared by slurry equilibration experiments. Particularly, water suspensions (KH2PO4/NaOH buffer having pH value of 7) of dithiine, pyrimethanil and the co-crystals were slurried for 1 hour, according with the maximum value of the intrinsic dissolution profile of the pure active. After 60 minutes small samples of about 1.0 ml were recovered with a syringe and filtered through a 0.1 micrometer PVDF Millipore filtration unit. Both solid phase and liquid phase were analyzed by XRPD and HPLC, respectively.

[2] = Isothermal TGA volatility study; type: physicochemical; settings: isothermal TGA at 100 C., nitrogen flow, weight loss monitored for 12 hours
Description: Isothermal Analysis of the Co-Crystals
TG/DTA measurement was carried out on a Seiko TG/DTA 7200 instrument. An open aluminium pan was used and the measurement was carried out under nitrogen flow with a sample weight of 5 to 10 mg. The isothermal TGA for volatility studies were performed at 100 C. and the weight loss was monitored for 12 hours.

| SMILES | solubility at 1 h [1] | TGA Volatility (% weight loss per minute) [2] |
| --- | --- | --- |
| Cn1c(=O)c2sc3c(=O)n(C)c(=O)c3sc2c1=O | 2 µg/mL (≈ 7.08 µM) | 5.45 × 10^−3 % weight loss per minute |
| Cc1cc(C)nc(Nc2ccccc2)n1 [pyrimethanil] | 58 µg/mL (≈ 291 µM) | 1.20 × 10^−2 % weight loss per minute |

Source: patent publication US20160015034A1, “Co-Crystals of Pyrimethanil and Selected Dithiine Tetracarboximide” (BASF SE, priority 2013, published 2016)
